The record followed here is ChEMBL document CHEMBL1133081, “Design and synthesis of potent hexapeptide and heptapeptide gonadotropin-releasing hormone antagonists by truncation of a decapeptide analogue sequence” (J Med Chem, 2000).

This assay addresses T1, Gonadotropin-releasing hormone receptor (Rattus norvegicus, UniProt P30969).
T1 sequence (P30969 whole entry): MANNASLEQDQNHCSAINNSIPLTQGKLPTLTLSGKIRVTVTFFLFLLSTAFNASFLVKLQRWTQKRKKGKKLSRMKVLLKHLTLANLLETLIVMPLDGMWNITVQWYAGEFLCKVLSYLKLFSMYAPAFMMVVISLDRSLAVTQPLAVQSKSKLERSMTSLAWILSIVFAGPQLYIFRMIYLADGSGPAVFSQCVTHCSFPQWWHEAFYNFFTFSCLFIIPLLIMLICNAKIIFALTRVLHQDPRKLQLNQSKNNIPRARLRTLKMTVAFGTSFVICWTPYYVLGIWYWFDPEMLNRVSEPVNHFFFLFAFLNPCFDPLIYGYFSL
Kind of assay: Concentration of the peptide which displaces 50% of 125 I-[D-Lys6] gonadotropin-releasing hormone bound to rat pituitary membranes. Type of assay: cell membranes, Membrane.
`CC(=O)N[C@H](Cc1ccc2ccccc2c1)C(=O)N[C@H](Cc1ccc(Cl)cc1)C(=O)N[C@H](Cc1ccccn1)C(=O)N[C@H](CCCN=C(N)N)C(=O)N[C@@H](CCCNC(N)=O)C(=O)N1CCC[C@H]1C(=O)N[C@H](C)C(N)=O` came in with an IC50 of 72 nM. In the case of `CC(=O)N[C@H](Cc1ccc2ccccc2c1)C(=O)N[C@H](Cc1ccccc1)C(=O)N[C@H](Cc1ccccc1)C(=O)NCC(=O)N[C@@H](CCCN=C(N)N)C(=O)N1CCC[C@H]1C(=O)N[C@H](C)C(N)=O` it was 28 nM; in that of `CC(=O)N[C@H](Cc1ccc2ccccc2c1)C(=O)N[C@H](Cc1ccc(Cl)cc1)C(=O)N[C@H](Cc1ccccn1)C(=O)N[C@H](C)C(=O)N1CCC[C@H]1C(=O)N[C@H](C)C(N)=O`, 1500 nM. As for `C[C@@H](NC(=O)[C@@H]1CCCN1C(=O)[C@H](CCCNC(=N)N)NC(=O)CNC(=O)[C@@H](Cc1ccccc1)NC(=O)[C@@H](Cc1ccccc1)NC(=O)[C@@H](Cc1ccc2ccccc2c1)NC(=O)OCC1c2ccccc2-c2ccccc21)C(N)=O`, the IC50 was 2200 nM.

In turn, `CC(=O)N[C@H](Cc1cccc2ccccc12)C(=O)N[C@H](Cc1ccccc1)C(=O)N[C@H](Cc1ccccc1)C(=O)NCC(=O)N[C@@H](CCCNC(=N)N)C(=O)N1CCC[C@H]1C(=O)N[C@H](C)C(N)=O` registered an IC50 of 370 nM.

Compound `CC(=O)N[C@H](Cc1ccc2ccccc2c1)C(=O)N[C@H](Cc1ccc(Cl)cc1)C(=O)N[C@H](Cc1ccccn1)C(=O)N[C@@H](CC(C)C)C(=O)N[C@@H](CCCN=C(N)N)C(=O)N1CCC[C@H]1C(=O)N[C@H](C)C(N)=O` registered an IC50 of 81 nM.

`CC(=O)N[C@@H](Cc1ccc2ccccc2c1)C(=O)N[C@H](Cc1ccc(Cl)cc1)C(=O)N[C@H](Cc1ccccn1)C(=O)N[C@@H](Cc1ccc(O)cc1)C(=O)N[C@H](CCCN=C(N)N)C(=O)N1CCC[C@@H]1C(=O)N[C@@H](C)C(N)=O` came in with an IC50 of 25 nM.

For `CC(=O)N[C@H](Cc1ccc2ccccc2c1)C(=O)N[C@H](Cc1ccc(Cl)cc1)C(=O)N[C@H](Cc1cccnc1)C(=O)N1CCC[C@H]1C(=O)N[C@@H](CCCN=C(N)N)C(=O)N1CCC[C@H]1C(=O)N[C@H](C)C(N)=O`, the IC50 was 110 nM. In the case of `CC(=O)N[C@H](Cc1c[nH]c2ccccc12)C(=O)N[C@H](Cc1ccccc1)C(=O)N[C@H](Cc1ccccc1)C(=O)NCC(=O)N[C@@H](CCCN=C(N)N)C(=O)N1CCC[C@H]1C(=O)N[C@H](C)C(N)=O` it was 450 nM; in that of `CC(=O)N[C@H](Cc1ccc2ccccc2c1)C(=O)N[C@H](Cc1ccc(Cl)cc1)C(=O)N[C@H](Cc1ccccn1)C(=O)N[C@H](C)C(=O)N[C@@H](CCCCNC(C)C)C(=O)N1CCC[C@H]1C(=O)N[C@H](C)C(N)=O`, 130 nM; in that of `CC(=O)N[C@H](Cc1ccc2ccccc2c1)C(=O)N[C@H](Cc1ccc(Cl)cc1)C(=O)N[C@H](Cc1ccccn1)C(=O)NCC(=O)N[C@@H](CCCN=C(N)N)C(=O)N1CCC[C@H]1C(=O)N[C@H](C)C(N)=O`, 7 nM.

With `CC(=O)N[C@H](Cc1ccc2ccccc2c1)C(=O)N[C@H](Cc1ccc(Cl)cc1)C(=O)N[C@H](Cc1ccccn1)C(=O)N[C@H](C)C(=O)N[C@@H](CCCNC(N)=O)C(=O)N1CCC[C@H]1C(=O)N[C@H](C)C(N)=O`, the IC50 amounted to 23 nM. For `CC(=O)N[C@H](Cc1ccc2ccccc2c1)C(=O)N[C@H](Cc1ccc(Cl)cc1)C(=O)N[C@H](Cc1ccccn1)C(=O)NCCC(=O)N[C@@H](CCCNC(=N)N)C(=O)N1CCC[C@H]1C(=O)N[C@H](C)C(N)=O` the value was 38 nM. The compound `CCCC[C@H](NC(=O)[C@@H](C)NC(=O)[C@@H](Cc1ccccn1)NC(=O)[C@@H](Cc1ccc(Cl)cc1)NC(=O)[C@@H](Cc1ccc2ccccc2c1)NC(C)=O)C(=O)N1CCC[C@H]1C(=O)N[C@H](C)C(N)=O` registered an IC50 of 88 nM. In the case of `CC(=O)N[C@H](Cc1ccc2ccccc2c1)C(=O)N[C@H](Cc1ccc(Cl)cc1)C(=O)N[C@H](Cc1ccccn1)C(=O)N[C@H](C)C(=O)N[C@@H](CCCCNNC(=O)c1cccnc1)C(=O)N1CCC[C@H]1C(=O)N[C@H](C)C(N)=O` it was 14 nM.

`C[C@@H](NC(=O)[C@@H]1CCCN1C(=O)[C@H](CCCN=C(N)N)NC(=O)CNC(=O)[C@@H](Cc1ccccc1)NC(=O)[C@@H](Cc1ccccc1)NC(=O)[C@H](N)Cc1ccc2ccccc2c1)C(N)=O` displayed an IC50 of 280 nM. On to `CC(=O)N[C@H](Cc1ccc2ccccc2c1)C(=O)N[C@H](Cc1ccc(Cl)cc1)C(=O)N[C@H](Cc1ccccn1)C(=O)Nc1ccccc1C(=O)N[C@@H](CCCNC(=N)N)C(=O)N1CCC[C@H]1C(=O)N[C@H](C)C(N)=O`, for which the IC50 came to 140 nM.

Regarding `CC(=O)N[C@H](Cc1ccccc1)C(=O)N[C@H](Cc1ccccc1)C(=O)N[C@H](Cc1ccccc1)C(=O)NCC(=O)N[C@@H](CCCNC(=N)N)C(=O)N1CCC[C@H]1C(=O)N[C@H](C)C(N)=O`, the IC50 was determined as 230 nM.

As for `CC(=O)N[C@H](Cc1ccc2ccccc2c1)C(=O)N[C@H](Cc1ccc(Cl)cc1)C(=O)N[C@H](Cc1ccccn1)C(=O)N[C@H](CCCNC(=N)N)C(=O)N1CCC[C@H]1C(=O)N[C@H](C)C(N)=O`, the IC50 is 70 nM. In the case of `CC(=O)N[C@H](Cc1ccc2ccccc2c1)C(=O)N[C@H](Cc1ccc(Cl)cc1)C(=O)N[C@H](Cc1ccccn1)C(=O)NCC(=O)N[C@H](CCCNC(=N)N)C(=O)N1CCC[C@H]1C(=O)N[C@H](C)C(N)=O` it was 16 nM; in that of `CC(=O)N[C@H](Cc1ccc2ccccc2c1)C(=O)N[C@H](Cc1ccc(Cl)cc1)C(=O)N[C@H](Cc1ccccn1)C(=O)N[C@@H](C)C(=O)N[C@@H](CCCNC(=N)N)C(=O)N1CCC[C@H]1C(=O)N[C@H](C)C(N)=O`, 28 nM; in that of `CC(=O)N[C@H](Cc1ccc2ccccc2c1)C(=O)N[C@H](Cc1ccc(Cl)cc1)C(=O)N[C@H](Cc1ccccn1)C(=O)N[C@H](C)C(=O)N[C@@H](CCCNC(=N)N)C(=O)N1CCC[C@H]1C(=O)N[C@H](C)C(N)=O`, 17 nM. In the case of `CC(=O)N[C@H](Cc1ccc2ccccc2c1)C(=O)N[C@H](Cc1ccc(Cl)cc1)C(=O)N[C@H](Cc1ccccn1)C(=O)NCC(=O)N1CCC[C@H]1C(=O)N[C@H](C)C(N)=O` it was 45 nM. For `CC(=O)N[C@H](Cc1ccc2ccccc2c1)C(=O)N[C@H](Cc1ccc(Cl)cc1)C(=O)N[C@H](Cc1ccccn1)C(=O)N[C@H](C)C(=O)N[C@@H](CCCCN)C(=O)N1CCC[C@H]1C(=O)N[C@H](C)C(N)=O` the value was 20 nM; for `CC(=O)N[C@H](Cc1ccc2ccccc2c1)C(=O)N[C@H](Cc1ccc(Cl)cc1)C(=O)N[C@H](Cc1ccccn1)C(=O)N[C@@H](CCCN=C(N)N)C(=O)N1CCC[C@H]1C(=O)N[C@H](C)C(N)=O`, 130 nM. Compound `CC(=O)N[C@H](Cc1ccc2ccccc2c1)C(=O)N[C@H](Cc1ccc(Cl)cc1)C(=O)N[C@H](Cc1ccccn1)C(=O)N[C@H](CC(C)C)C(=O)N[C@@H](CCCNC(=N)N)C(=O)N1CCC[C@H]1C(=O)N[C@H](C)C(N)=O` yielded an IC50 of 74 nM. For `CC(=O)N[C@@H](Cc1ccc2ccccc2c1)C(=O)N[C@H](Cc1ccc(Cl)cc1)C(=O)N[C@H](Cc1ccccn1)C(=O)N[C@H](CCCCN)C(=O)N1CCC[C@@H]1C(=O)N[C@@H](C)C(N)=O` the value was 550 nM; for `CC(=O)N[C@H](Cc1ccc2ccccc2c1)C(=O)N[C@H](Cc1ccc(Cl)cc1)C(=O)N[C@H](Cc1ccccn1)C(=O)NC1(C(=O)N[C@@H](CCCN=C(N)N)C(=O)N2CCC[C@H]2C(=O)N[C@H](C)C(N)=O)CCC1`, 42 nM. In the case of `CC(=O)N[C@H](Cc1ccc2ccccc2c1)C(=O)N[C@H](Cc1ccc(Cl)cc1)C(=O)N[C@H](Cc1ccccn1)C(=O)N(C)CC(=O)N[C@@H](CCCNC(=N)N)C(=O)N1CCC[C@H]1C(=O)N[C@H](C)C(N)=O` it was 31 nM.
